From patent publication US11066447B2, “Aureobasidium derivatives and methods of synthesis” (AureoGen Biosciences, Inc., priority 2016, dated 2021)
Converted amounts (≈) assume the structure as drawn. “And” between values parts separate entries of the source, which are not always exact repeats. Identical values can stand only once. Like-named read-outs stand apart in the source and are kept apart here. Numbered stars: 1 amine (or outer) side, 2 acyl side, 3 side chain; on linkers, the order of the positions; unused ones are H or OH. Square brackets hold non-standard residues; d marks the D form. Peptide text beside a SMILES is read from it. ξ: configuration not given here. X8 = CC(=O)N1CCN(c2ccc(-c3cccc(C[C@@H](C(=O)[*:2])N(C)[*:1])c3)cn2)CC1; X1 = CC(C)N1CCN(c2ccc(-c3cccc(C[C@@H](C(=O)[*:2])N(C)[*:1])c3)cc2)CC1; X2 = CN1CCN(c2ccc(-c3cccc(C[C@@H](C(=O)[*:2])N(C)[*:1])c3)cc2)CC1; X7 = CC(C)N1CCN(c2ccc(-c3cccc(C[C@H](N[*:1])C(=O)[*:2])c3)cc2)CC1; X10 = CN([C@@H](Cc1cccc(-c2ccc(N3CCNCC3)nc2)c1)C(=O)[*:2])[*:1]; NMePhe(3-(3-pyridyl)) = CN[C@@H](Cc1cccc(-c2cccnc2)c1)C(=O)O; X36 = CN([C@@H](Cc1ccc(-c2cccnc2)cc1)C(=O)[*:2])[*:1]; Hmp(2R,3S) = CC[C@H](C)[C@@H](O)C(=O)O; NMeVal(β-OH) = CN[C@H](C(=O)O)C(C)(C)O; X6 = CCC(C)[C@@H](O[*:1])C(=O)[*:2]; ξNMeVal(3-OH) = CNC(C(=O)O)C(C)(C)O; Ile(3ξ) = CCC(C)[C@H](N)C(=O)O; NMeV = CN[C@H](C(=O)O)C(C)C; ξL = CC(C)CC(N)C(=O)O

What was measured:
[1] = tested on: A. fumigates; experiment: Antifungal activity of separated positional isomers of Compound X; format: cell-based
Procedure: Test Procedure. The MIC assay method followed the procedure described by CLSI (1, 2) and employed automated liquid handlers to conduct serial dilutions and liquid transfers. Automated liquid handlers included the Multidrop 384 (Labsystems, Helsinki, Finland), Biomek 2000 and Biomek FX (Beckman Coulter, Fullerton Calif.). The wells in columns 2-12 in standard 96-well microdilution plates (Costar 3795) were filled with 150 μl of the appropriate diluent (95% EtOH for investigational compounds, 100% DMSO for amphotericin B). These assay plates would become the ‘mother plates’ from which the assay ‘daughter plates’ would be prepared. The drugs (300 μL at 40× the desired top concentration in the test plates) were dispensed into the appropriate well in Column 1 of the mother plates. The Biomek 2000 was used to make two-fold serial dilutions through Column 11 in the “mother plate”. The wells of Column 12 contained no drug and served as the organism growth control wells.
The microplates were viewed from the bottom using a plate viewer. […] The MIC was read and recorded as the lowest concentration of drug that inhibited visible growth of the organism. MECs were read where the growth shifted to a small, rounded, compact hyphal form as compared to the hyphal growth seen in the growth control well. […]

[2] = tested on: A. fumigatus MMX 6781 ATCC MYA-4609; experiment: MIC/MEC assay (CLSI microdilution); format: cell-based
Summary of the method: (§1)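 Aspergillus spore suspensions, diluted from counted stocks to a final approximately 0.2-2.5×10^4 CFU/mL, were inoculated into RPMI-1640 containing 0.002% Tween-80 holding two-fold drug dilutions. Compounds came from 95% ethanol, amphotericin B (0.06-64 μg/mL) from DMSO. MMX 5280 was also tested without Tween-80.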

[3] = tested on: A. fumigatus MMX 5944; experiment: MIC/MEC assay (CLSI microdilution); format: cell-based; settings: for minimal effective concentration / MIC: Aspergillus fumigatus, MMX5944, 48 h; for MIC: RPMI plus 0.002% Tween-80, read-out: MIC
Summary of the method: as §1

[4] = tested on: A. fumigatus from Aureogen; experiment: MIC/MEC assay (CLSI microdilution); format: cell-based; settings: Aspergillus fumigatus, 48 h; for minimal effective concentration: RPMI plus 0.002% Tween-80; for MIC: RPMI plus 0.002% Tween-80, read-out: MIC
Summary of the method: as §1

[5] = tested on: A. flavus MMX 5948; experiment: MIC/MEC assay (CLSI microdilution); format: cell-based; settings: Aspergillus flavus, MMX5948, 48 h; for minimal effective concentration: RPMI plus 0.002% Tween-80; for MIC: RPMI plus 0.002% Tween-80, read-out: MIC
Summary of the method: as §1

[6] = tested on: A. niger MMX 0624 ATCC 16888; experiment: MIC/MEC assay (CLSI microdilution); format: cell-based; settings: for minimal effective concentration: RPMI plus 0.002% Tween-80, read-out: MEC
Summary of the method: as §1

[7] = tested on: A. fumigatus MMX 6782 ATCC 13073; experiment: MIC/MEC assay (CLSI microdilution); format: cell-based; settings: for minimal effective concentration: RPMI plus 0.002% Tween-80, read-out: MEC
Summary of the method: as §1

[8] = tested on: A. fumigatus MMX 5280 ATCC MYA-3626; experiment: MIC/MEC assay (CLSI microdilution); format: cell-based, Aspergillus fumigatus
Summary of the method: as §1

[9] = tested on: C. neoformans MMX 0634 ATCC 90112; experiment: MIC assay (CLSI microdilution); format: cell-based; settings: Cryptococcus neoformans, read-out: MIC
[10] = tested on: C. albicans MMX 2000 ATCC 10231; experiment: MIC assay (CLSI microdilution); format: cell-based; settings: Candida albicans, ATCC10231, RPMI plus 0.002% Tween-80; read-out: MIC
[11] = tested on: C. albicans MMX 2000 ATCC 10231; experiment: MIC assay (CLSI microdilution); format: cell-based; settings: Candida albicans, ATCC10231, Without Tween-80; read-out: MIC
[12] = tested on: C. parapsilosis MMX 2323 ATCC 22019; experiment: MIC assay (CLSI microdilution); format: cell-based, Candida parapsilosis
Summary of the method: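 Broth microdilution MIC testing of Candida parapsilosis ATCC 22019 followed CLSI methods in RPMI-1640, with or without 0.002% Tween-80. Yeast grown 48 hours at 35° C on Sabouraud dextrose agar was suspended to a 0.5 McFarland standard and diluted 1:100 to roughly 0.5-2.5×10^3 CFU/mL. The MIC was the lowest concentration preventing visible growth.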

[13] = RPMI plus 0.002% Tween-80, 48 hr
[14] = Aspergillus niger, ATCC16888, 48 h
[15] = Aspergillus niger, ATCC16888, 48 h, RPMI plus 0.002% Tween-80, read-out: MIC
[16] = Aspergillus fumigatus, 48 h, RPMI plus 0.002% Tween-80, read-out: MEC
[17] = Aspergillus fumigatus, 48 h, RPMI plus 0.002% Tween-80, read-out: MIC
[18] = Aspergillus fumigatus, 48 h, Without Tween-80, read-out: MIC
[19] = ATCC90112, 72 h, 72 hour, RPMI plus 0.002% Tween-80
[20] = ATCC22019, RPMI plus 0.002% Tween-80, read-out: MIC
[21] = ATCC22019, Without Tween-80, read-out: MIC
[22] = Aspergillus fumigatus, ATCC13073, 48 h
[23] = Aspergillus fumigatus, ATCC13073, 48 h, RPMI plus 0.002% Tween-80, read-out: MIC
[24] = Aspergillus fumigatus, RPMI plus 0.002% Tween-80, 48 hr
[25] = Aspergillus fumigatus, 48 h, Without Tween-80, read-out: MEC

| MIC [3] [µg/mL] | MIC [4] [µg/mL] | MIC [5] [µg/mL] | MIC [6, 15] [µg/mL] | MIC [8, 17] [µg/mL] | MIC [8, 18] [µg/mL] | MIC [9, 19] [µg/mL] | MIC [10] [µg/mL] | MIC [11] [µg/mL] | MIC [12, 20] [µg/mL] | MIC [12, 21] [µg/mL] | MIC [7, 23] [µg/mL] | SMILES | MIC [1] [µg/mL] | minimal effective concentration ([3]; RPMI plus 0.002% Tween-80) [µg/mL] | minimal effective concentration [4] [µg/mL] | minimal effective concentration [5] [µg/mL] | minimal effective concentration [6, 14] [µg/mL] | minimal effective concentration [8, 16] [µg/mL] | MEC ([8]; Without Tween-80, 48 hr) | minimal effective concentration [7, 22] [µg/mL] | further results |
| --- | --- | --- | --- | --- | --- | --- | --- | --- | --- | --- | --- | --- | --- | --- | --- | --- | --- | --- | --- | --- | --- |
|  |  |  |  |  |  |  |  |  |  |  |  | CCC(C)[C@@H]1NC(=O)[C@@H]2CCCN2C(=O)[C@H](Cc2cccc(-c3cccnc3)c2)N(C)C(=O)[C@H](Cc2ccccc2)NC(=O)[C@H](C(C)C)N(C)C(=O)[C@@H](C(C)CC)OC(=O)C(C(C)(C)O)N(C)C(=O)C(CC(C)C)NC(=O)[C@H](C(C)C)N(C)C1=O (stereo partly drawn) [meta-substituted positional isomer of Compound X] (cyclo(F[NMePhe(3-(3-pyridyl))]P[Ile(3ξ)][NMeV][ξL][ξNMeVal(3-OH)][X6][NMeV])) | 0.6 (≈ 0.509 µM) |  |  |  |  |  |  |  |  |
| 1 | 0.5 | 0.5 | 1 | 2 | 1 (≈ 0.664 µM) | 1 | 0.06 | 1 (≈ 0.664 µM) | 0.5 | 2 (≈ 1.33 µM) |  | CC[C@H](C)[C@@H]1NC(=O)[C@@H]2CCCN2C(=O)[C@H](Cc2cccc(-c3ccc(N4CCN(C(C)C)CC4)cc3)c2)N(C)C(=O)[C@H](Cc2cccc(-c3ccc(N4CCN(C(C)C)CC4)cc3)c2)NC(=O)[C@H](C(C)C)N(C)C(=O)[C@@H]([C@@H](C)CC)OC(=O)[C@H](C(C)(C)O)N(C)C(=O)[C@H](CC(C)C)NC(=O)[C@H](C(C)C)N(C)C1=O [Compound 31] (cyclo(I[NMeV]L[NMeVal(β-OH)][Hmp(2R,3S)][NMeV][X7][X1]P)) |  | 0.5 | 0.25 | 0.12 | 0.5 | 0.5 | 1/1 μg/mL and 1 μg/mL |  | MEC [2, 13]: 1 µg/mL; MIC [2, 13]: 2 µg/mL; MEC [7, 13]: 1 µg/mL; MIC [7, 13]: 2 µg/mL; MIC ([8]; Without Tween-80, 48 hr): 2 µg/mL (≈ 1.33 µM) |
| 1 | 1 | 0.5 | 0.5 |  | 2 (≈ 1.58 µM) | 0.25 | 0.015 | 0.5 (≈ 0.396 µM) | 0.06 | 2 (≈ 1.58 µM) | 2 | CC[C@H](C)[C@@H]1NC(=O)[C@@H]2CCCN2C(=O)[C@H](Cc2cccc(-c3ccc(N4CCNCC4)nc3)c2)N(C)C(=O)[C@H](Cc2ccccc2)NC(=O)[C@H](C(C)C)N(C)C(=O)[C@@H]([C@@H](C)CC)OC(=O)[C@H](C(C)(C)O)N(C)C(=O)[C@H](CC(C)C)NC(=O)[C@H](C(C)C)N(C)C1=O [Compound 30] (cyclo(F[X10]PI[NMeV]L[NMeVal(β-OH)][Hmp(2R,3S)][NMeV])) |  | 0.5 | 0.5 | 0.12 | 0.5 |  | 1 µg/mL | 0.5 | MEC [2, 13]: 1 µg/mL; MIC [2, 13]: 2 µg/mL; MEC [8, 13]: 1 µg/mL; MIC [8, 13]: 2 µg/mL |
|  |  |  |  |  |  |  |  |  |  |  |  | CCC(C)[C@@H]1NC(=O)[C@@H]2CCCN2C(=O)[C@H](Cc2ccc(-c3cccnc3)cc2)N(C)C(=O)[C@H](Cc2ccccc2)NC(=O)[C@H](C(C)C)N(C)C(=O)[C@@H](C(C)CC)OC(=O)C(C(C)(C)O)N(C)C(=O)C(CC(C)C)NC(=O)[C@H](C(C)C)N(C)C1=O (stereo partly drawn) [para substituted positional isomer of Compound X] (cyclo(F[X36]P[Ile(3ξ)][NMeV][ξL][ξNMeVal(3-OH)][X6][NMeV])) | > 2.5 |  |  |  |  |  |  |  |  |
| > 64 | > 64 | 1 | 1 | > 64 | > 64 | 2 | 0.03 | 2 (≈ 1.53 µM) | 0.25 | 2 (≈ 1.53 µM) | > 64 | CC[C@H](C)[C@@H]1NC(=O)[C@@H]2CCCN2C(=O)[C@H](Cc2cccc(-c3ccc(N4CCN(C(C)=O)CC4)nc3)c2)N(C)C(=O)[C@H](Cc2ccccc2)NC(=O)[C@H](C(C)C)N(C)C(=O)[C@@H]([C@@H](C)CC)OC(=O)[C@H](C(C)(C)O)N(C)C(=O)[C@H](CC(C)C)NC(=O)[C@H](C(C)C)N(C)C1=O [Compound 32] (cyclo(F[X8]PI[NMeV]L[NMeVal(β-OH)][Hmp(2R,3S)][NMeV])) |  | 1 | > 64 | 0.25 | 0.5 | 2 |  | > 64 | MIC [2, 17]: > 64 µg/mL; minimal effective concentration [2, 24]: > 64 µg/mL; minimal effective concentration [8, 25]: > 64 µg/mL |
| 0.06 | 0.25 | 0.015 | 0.015 | 0.25 | 1 (≈ 0.784 µM) | 0.06 | 0.015 | 0.5 (≈ 0.392 µM) | 0.03 | 1 (≈ 0.784 µM) | 0.12 | CC[C@H](C)[C@@H]1NC(=O)[C@@H]2CCCN2C(=O)[C@H](Cc2cccc(-c3ccc(N4CCN(C)CC4)cc3)c2)N(C)C(=O)[C@H](Cc2ccccc2)NC(=O)[C@H](C(C)C)N(C)C(=O)[C@@H]([C@@H](C)CC)OC(=O)[C@H](C(C)(C)O)N(C)C(=O)[C@H](CC(C)C)NC(=O)[C@H](C(C)C)N(C)C1=O [Compound 19] (cyclo(F[X2]PI[NMeV]L[NMeVal(β-OH)][Hmp(2R,3S)][NMeV])) |  | 0.015 | 0.06 | 0.008 | 0.008 | 0.06 | 1 µg/mL | 0.03 | MIC [2, 17]: 0.12 µg/mL; minimal effective concentration [2, 24]: 0.06 µg/mL; MEC [3, 13]: 0.015 µg/mL; MIC [6, 13]: 0.015 µg/mL; minimal effective concentration [8, 25]: 0.5 µg/mL; MIC ([8]; Without Tween-80, 48 hr): 2 µg/mL (≈ 1.57 µM); MIC ([9]; ATCC90112, RPMI plus 0.002% Tween-80): 0.03 µg/mL; MIC ([12]; Without Tween-80): 2 µg/mL (≈ 1.57 µM) |
